# In ChEMBL document CHEMBL1201862, “PubChem BioAssay data set” (2004):
#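 Dose response: 5 concentrations. Exposure: 48 h. Format: 96-well plates. Endpoint: linear interpolation; highest concentration if not reached. GI50: concentration for 50% inhibition of growth.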 Activity calls are given as the source filed them. Rule as the data show it: active = GI50 up to about 1.1 µM and inactive = higher.
# Key:
# Assay in all cases: DTP human tumour cell line panel, 48 h
# SNB-78 = tested on: SNB-78
# HOP-18 = tested on: HOP-18
# M19-MEL = tested on: M19-MEL
# LXFL 529 = tested on: LXFL 529
# DLD-1 = tested on: DLD-1
# DMS-114 = tested on: DMS-114
# KM-20L2 = tested on: KM-20L2
# XF498 = tested on: XF498
# RXF 631 = tested on: RXF 631
SMILES,GI50 (SNB-78),GI50 (HOP-18),GI50 (M19-MEL),GI50 (LXFL 529),GI50 (DLD-1),GI50 (DMS-114),GI50 (KM-20L2),GI50 (XF498),GI50 (RXF 631)
O=C(CSc1nnc(Cc2ccccc2)o1)Nc1ccccc1,> 100 µM (inactive),> 100 µM (inactive),> 100 µM (inactive),> 100 µM (inactive),> 100 µM (inactive),> 100 µM (inactive),> 100 µM (inactive),,
O=C1Cc2ccccc2CCc2ccccc21,> 100 µM (inactive),> 100 µM (inactive),> 100 µM (inactive),> 100 µM (inactive),> 100 µM (inactive),47 µM (inactive),> 100 µM (inactive),,
CC1=NN(c2ccccc2)C(=O)/C1=C\c1ccc([N+](=O)[O-])cc1,28.4 µM (inactive),< 0.01 µM (active),,32.1 µM (inactive),36 µM (inactive),20.8 µM (inactive),22.8 µM (inactive),16.6 µM (inactive),29.5 µM (inactive)
C=C1CCC2(C(C)=O)COC1(C)O2 (centres undefined),,> 100 µM (inactive),> 100 µM (inactive),,> 100 µM (inactive),> 100 µM (inactive),,62.2 µM (inactive),
O=[N+]([O-])c1ccc(-c2ccc(C3=Nn4c(nnc4-c4ccc(Cl)cc4)SC3)o2)cc1,,> 100 µM (inactive),> 100 µM (inactive),> 100 µM (inactive),> 91.4 µM (inactive),> 100 µM (inactive),> 100 µM (inactive),24.9 µM (inactive),> 53.3 µM (inactive)
NC(=O)CCC(NC(=O)Cc1ccccc1)C(=O)O (centres undefined),,,> 2470 µM (inactive),> 2470 µM (inactive),> 2470 µM (inactive),> 2470 µM (inactive),> 2470 µM (inactive),,
CCOC(=O)C1=C(O)C(=O)c2c(OC)ccc(OC)c2C1=O,> 100 µM (inactive),32.5 µM (inactive),> 100 µM (inactive),,> 100 µM (inactive),> 100 µM (inactive),> 100 µM (inactive),> 100 µM (inactive),
CCOC(=O)NC(=O)c1cn(-c2ccc(CCOC(=O)CCCCCCCCC(=O)OCCc3ccc(-n4cc(C(=O)NC(=O)OCC)c(=O)[nH]c4=O)cc3)cc2)c(=O)[nH]c1=O,> 100 µM (inactive),> 100 µM (inactive),> 100 µM (inactive),> 100 µM (inactive),> 100 µM (inactive),> 100 µM (inactive),> 100 µM (inactive),> 100 µM (inactive),> 100 µM (inactive)
O=c1ncccn1C1C=C(CO)C(O)C1O (centres undefined),> 50 µM (inactive),> 50 µM (inactive),,> 50 µM (inactive),> 50 µM (inactive),> 50 µM (inactive),> 50 µM (inactive),> 50 µM (inactive),
CC1=C(NC(=O)/C(=N/NC(=S)NN)C2C(=O)CC(C)(C)CC2=O)C(=O)c2ccccc2C1=O,15.2 µM (inactive),15.7 µM (inactive),1.33 µM (inactive),11.4 µM (inactive),4.48 µM (inactive),2.12 µM (inactive),11.4 µM (inactive),14.9 µM (inactive),7.8 µM (inactive)
Oc1ccc(-c2c3ccccc3c(-c3ccc(O)cc3)c3ccccc23)cc1,> 100 µM (inactive),> 100 µM (inactive),> 100 µM (inactive),91.6 µM (inactive),> 100 µM (inactive),> 100 µM (inactive),> 100 µM (inactive),> 100 µM (inactive),
CC(=O)CC(N)=O,> 100 µM (inactive),> 100 µM (inactive),> 100 µM (inactive),> 100 µM (inactive),> 100 µM (inactive),> 100 µM (inactive),> 100 µM (inactive),> 100 µM (inactive),> 100 µM (inactive)
O=C1Oc2cc3c(c4cccc1c24)OCN(c1ccccc1)C3,,,38.8 µM (inactive),38.6 µM (inactive),> 100 µM (inactive),38.1 µM (inactive),> 100 µM (inactive),> 100 µM (inactive),
O=C(c1nc2ccccc2nc1O)C(O)c1ccccc1 (centres undefined),> 100 µM (inactive),,90.8 µM (inactive),50.2 µM (inactive),> 100 µM (inactive),48.6 µM (inactive),46.5 µM (inactive),,
CCOC(=O)CSc1nnc(C(Sc2nc(-c3ccccc3)c(-c3ccccc3)[nH]2)C(C)C)n1-c1ccccc1 (centres undefined),> 10 µM (inactive),,> 10 µM (inactive),> 10 µM (inactive),> 10 µM (inactive),> 10 µM (inactive),> 10 µM (inactive),,
CC(C)CN1CC(C)C(=O)NC1=O (centres undefined),> 100 µM (inactive),,> 100 µM (inactive),> 100 µM (inactive),> 100 µM (inactive),> 100 µM (inactive),> 100 µM (inactive),> 100 µM (inactive),
Cc1ccc(/C=C/C(=O)c2sc(-c3nc(C)c(C(=O)/C=C/c4ccc(C)cc4)s3)nc2C)cc1,> 100 µM (inactive),> 100 µM (inactive),> 100 µM (inactive),,> 100 µM (inactive),> 100 µM (inactive),> 100 µM (inactive),,> 100 µM (inactive)
COc1c(CC(C)=O)c2ccccc2n1C(C)=O,> 100 µM (inactive),> 100 µM (inactive),> 100 µM (inactive),> 100 µM (inactive),> 100 µM (inactive),,> 100 µM (inactive),> 100 µM (inactive),> 100 µM (inactive)
COC1C2c3ccccc3C(C#N)(Cc3ccc4c(c32)OCO4)N1C(=O)c1ccccc1 (centres undefined),47.8 µM (inactive),80.7 µM (inactive),,46 µM (inactive),60.3 µM (inactive),19.6 µM (inactive),43.1 µM (inactive),21.3 µM (inactive),> 100 µM (inactive)
CN(CCO)c1nc(N)cc(=O)[nH]1,> 100 µM (inactive),> 100 µM (inactive),> 100 µM (inactive),> 100 µM (inactive),> 100 µM (inactive),> 100 µM (inactive),> 100 µM (inactive),> 100 µM (inactive),
NNC(=O)CCC(=O)Nc1cc(Cl)c(Cl)cc1Cl,> 100 µM (inactive),,> 100 µM (inactive),> 100 µM (inactive),> 100 µM (inactive),> 100 µM (inactive),> 100 µM (inactive),> 100 µM (inactive),> 100 µM (inactive)
Cc1ccc(NC(=O)CC2C(=O)Nc3ccccc3S2(=O)=O)c(C)c1 (centres undefined),18.1 µM (inactive),,,16.7 µM (inactive),14.6 µM (inactive),15 µM (inactive),13.8 µM (inactive),14.8 µM (inactive),
O=S(O)CCCCCSSCCCCSSCCCCCS(=O)O,> 100 µM (inactive),> 100 µM (inactive),> 100 µM (inactive),79.6 µM (inactive),> 100 µM (inactive),> 100 µM (inactive),> 100 µM (inactive),46.8 µM (inactive),> 100 µM (inactive)
O=C1C(c2ccc(Cl)cc2)=[N+]([O-])c2ccccc21,,21.8 µM (inactive),> 100 µM (inactive),5.36 µM (inactive),13.8 µM (inactive),4.07 µM (inactive),25.4 µM (inactive),20.4 µM (inactive),23.6 µM (inactive)
C[C@@H]1C[C@@H](O)[C@]2(O)O[C@@H]3C[C@@]4(C=O)[C@@H](CC[C@@H]5[C@@H]4CC[C@]4(C)[C@@H](C6=CC(=O)OC6)CC[C@]54O)C[C@H]3O[C@@H]2O1 [CALACTIN],0.0106 µM (active),0.0042 µM (active),0.0206 µM (active),0.00501 µM (active),0.012 µM (active),0.00141 µM (active),0.0182 µM (active),0.0159 µM (active),
